Structure (SMILES) | melting point
CCCCOc1ccc(C(=O)N[C@@H]2CCc3c(O)ccc(N4CCN(C)CC4)c3C2)cc1 [Example 11, (R)-N-[5-Hydroxy-8-(4-methylpiperazin-1-yl)-1,2,3,4-tetrahydro-2-naphthyl]-4-butoxybenzamide] | 125 °C (dec.)
O=C(N[C@@H]1CCc2c(Br)ccc(N3CCNCC3)c2C1)c1ccc(N2CCOCC2)cc1 [Example 17, (R)-N-[5-Bromo-8-(piperazin-1-yl)-1,2,3,4-tetrahydro-2-naphthyl]-4-morpholinobenzamide] | 228 to 229 °C
CN1CCN(c2ccc(Br)c3c2C[C@H](NC(=O)c2ccc(N4CCOCC4)cc2)CC3)CC1 [Example 20, (R)-N-[5-Bromo-8-(4-methylpiperazin-1-yl)-1,2,3,4-tetrahydro-2-naphthyl]-4-morpholinobenzamide] | 245 to 246 °C
COc1ccc(N2CCN(C)CC2)c2c1CC[C@@H](NC(=O)c1ccc(N3CCOCC3)cc1)C2 [Example 25, (R)-N-[5-Methoxy-8-(4-methylpiperazin-1-yl)-1,2,3,4-tetrahydro-2-naphthyl]-4-morpholinobenzamide] | 237 to 238 °C
CN1CCN(c2ccc(O)c3c2C[C@H](NC(=O)c2ccc(C#N)cc2)CC3)CC1 [Example 26, (R)-N-[5-Hydroxy-8-(4-methylpiperazin-1-yl)-1,2,3,4-tetrahydro-2-naphthyl]-4-cyanobenzamide] | 144 °C
COc1ccc(N2CCN(C)CC2)c2c1CC[C@@H](NC(=O)c1ccc(C(=O)N3CCOCC3)cc1)C2 [Example 27, (R)-N-[5-Methoxy-8-(4-methylpiperazin-1-yl)-1,2,3,4-tetrahydro-2-naphthyl]-4-morpholinocarbonylbenzamide] | 209 to 210 °C
CN1CCN(c2ccc(Br)c3c2C[C@H](NC(=O)c2ccc(C(=O)N4CCOCC4)cc2)CC3)CC1 [Example 28, (R)-N-[5-Bromo-8-(4-methylpiperazin-1-yl)-1,2,3,4-tetrahydro-2-naphthyl]-4-morpholinocarbonylbenzamide] | 228 to 230 °C
COc1ccc(C2CCN(C)CC2)c2c1CC[C@@H](NC(=O)c1ccc(N3CCOCC3)cc1)C2 [Example 38, (R)-N-[5-Methoxy-8-(1-methylpiperidin-4-yl)-1,2,3,4-tetrahydro-2-naphthyl]-4-morpholinobenzamide] | 237 to 242 °C (dec.)
CCc1ccc(N2CCN(C)CC2)c2c1CC[C@@H](NC(=O)c1ccc(N3CCOCC3)cc1)C2 [Example 42, (R)-N-[5-Ethyl-8-(4-methylpiperazin-1-yl)-1,2,3,4-tetrahydro-2-naphthyl]-4-morpholinobenzamide] | 234 °C (dec.)
CN1CCN(c2ccc(OC(F)F)c3c2C[C@H](NC(=O)c2ccc(N4CCOCC4)cc2)CC3)CC1 [Example 46, (R)-N-[5-Difluoromethoxy-8-(4-methylpiperazin-1-yl)-1,2,3,4-tetrahydro-2-naphthyl]-4-morpholinobenzamide] | 222 to 223 °C
CN1CCN(c2ccc(Br)c3c2C[C@H](NC(=O)c2ccc(C(F)(F)F)cc2)CC3)CC1 [Example 48, (R)-N-[5-Bromo-8-(4-methylpiperazin-1-yl)-1,2,3,4-tetrahydro-2-naphthyl]-4-trifluoromethylbenzamide] | 229 to 230 °C
COCc1ccc(N2CCN(C)CC2)c2c1CC[C@@H](NC(=O)c1ccc(N3CCOCC3)cc1)C2 [Example 51, (R)-N-[5-Methoxymethyl-8-(4-methylpiperazin-1-yl)-1,2,3,4-tetrahydro-2-naphthyl]-4-morpholinobenzamide] | 200 °C (dec.)
CN1CCN(c2ccc(O)c3c2C[C@H](NC(=O)c2ccc(N4CCOCC4)cc2)CC3)CC1 [Example 60, (R)-N-[5-Hydroxy-8-(4-methylpiperazin-1-yl)-1,2,3,4-tetrahydro-2-naphthyl]-4-morpholinobenzamide] | 84 to 88 °C
Cc1ccc(N2CCNCC2)c2c1CC[C@@H](NC(=O)c1ccc(N3CCOCC3)cc1)C2 [Example 67, (R)-N-[5-Methyl-8-(piperazin-1-yl)-1,2,3,4-tetrahydro-2-naphthyl]-4-morpholinobenzamide] | 207 to 210 °C
Cc1ccc(N2CCN(C)CC2)c2c1CC[C@@H](NC(=O)c1ccc(Cl)cc1)C2 [Example 68, (R)-N-[5-Methyl-8-(4-methylpiperazin-1-yl)-1,2,3,4-tetrahydro-2-naphthyl]-4-chlorobenzamide] | 210 to 212 °C

— patent US6534652B2, “Intermediates for the preparation of substituted 1,2,3,4-tetrahydronaphthalene derivatives” (AstraZeneca AB, priority 1997, dated 2003)
